Source: patent US20180031513A1, “CELL CHIP-BASED QUANTITATIVE ANALYSIS OF UNDIFFERENTIATED HUMAN PLURIPOTENT STEM CELL” (SOGANG UNIVERSITY RESEARCH FOUNDATION, priority 2015, published 2018)

Key:
Type in all cases: cell-based, human
hESCs (H9) = assay: Cell chip cyclic voltammetry (ipc) of hESCs after YM155 treatment; conditions: 24 h after dose-dependent YM155 treatment (FIG. 6B)
Experimental: (§1) hESCs (H9; Wicell Research Institute) and hiPSCs (SES8; (32)) were cultured in mTeSR1 medium (StemCell Technologies) under feeder-free conditions. hASMCs and i-dSMCs were cultured in smooth muscle cell-specific medium, SMCM (ScienCell Research Laboratories), and hDFs were cultured in DMEM medium (Gibco) supplemented with 10% FBS and 0.1% gentamycin. Alkaline phosphatase staining was performed according to the direction included in the Alkaline Phosphatase Kit (Sigma).
(§2) Cyclic voltammetry (CV) method was carried out using a CHIe660C Potentiostat (CH Instruments, Austin, Tex., USA). A fabricated chip, based on an Au electrode as a working electrode, an Ag/AgCl (1M KCl) as a reference electrode, and a Pt wire as a counter electrode was used. For the electrochemical measurement, cells were washed with PBS (0.01 M, PH 7.4). […] All measurements were replicated at least three times, and the cell number was calculated following detection.
(§3) The present inventors reported two kinds of small molecules for inducing the selective apoptosis of undifferentiated hPSCs in previous studies (33). […] Label-free cell chip-based quantification of residual undifferentiated hPSCs may be applied at the end stage, which is critical to determine whether any additional treatment of undifferentiated cells is required in order to ensure safety of tumor-free cell therapy. […]

[1] = system: hiPSCs co-cultured with hASMCs; assay: Cell chip ipc and colony morphology in mixed culture of hiPSCs and hASMCs after YM155 treatment
Experimental: (§4) Cyclic voltammetry (CV) method was carried out using a CHIe660C Potentiostat (CH Instruments, Austin, Tex., USA). A fabricated chip, based on an Au electrode as a working electrode, an Ag/AgCl (1M KCl) as a reference electrode, and a Pt wire as a counter electrode was used. For the electrochemical measurement, cells were washed with PBS (0.01 M, PH 7.4). CV detection was performed between −0.2 V and 0.6 V at 0.1 V/s in mTeSR1 (StemCell Technologies, #05850). All measurements were replicated at least three times, and the cell number was calculated following detection.
(§5) The present inventors reported two kinds of small molecules for inducing the selective apoptosis of undifferentiated hPSCs in previous studies (33). Therefore, it was predicted that, due to the induction of apoptosis by YM-155, treatment with YM-155 would decrease the number of hPSCs and thereby lower the ipc. […] Label-free cell chip-based quantification of residual undifferentiated hPSCs may be applied at the end stage, which is critical to determine whether any additional treatment of undifferentiated cells is required in order to ensure safety of tumor-free cell therapy. To mimic this situation, hiPSCs were co-cultured with hASMCs. After the co-culture in the cell chip, hiPSCs still maintained the specific colony morphology of hPSCs (FIG. 6C, left panel, black dotted line), but after 24 h of YM155 treatment, there was a typical colony morphology in hiPSCs but not in hASMCs (FIG. 6C, right panel, red dotted line).

undifferentiated hPSCs = assay: Detection of specific cathodic peak potential (Epc) of hPSCs after YM-155 treatment; conditions: after YM-155 treatment to ablate undifferentiated hPSCs
Experimental: as §4

hiPSCs (SES8) = assay: Cell chip cyclic voltammetry (ipc) and cell number of hiPSCs after YM155 treatment; conditions: 24 h after dose-dependent YM155 treatment (FIG. 6A)
Experimental: as §1, §2, §3

[2] = system: SSEA3-positive vs SSEA3-negative populations of hESC mixed culture; assay: Active caspase-3 apoptosis FACS in mixed culture of hESCs and differentiated cells derived therefrom; conditions: 40 nM, mixed culture of hESCs and differentiated cells derived therefrom (FIG. 10)
Source text: Cells were stained with respective fluorescent-labeled antibodies and analyzed using FACSCalibur (BD Biosciences). The following antibodies were used: Oct4 (Abcam), FITC Rat Anti-SSEA3 and PE Mouse Anti-Human TRA-1-60 (BD Pharminogen). For apoptosis assays, cells were stained using the PE Annexin V Apoptosis Detection Kit and the PE Active Caspase-3 Apoptosis Kit (BD Pharminogen) according to the manufacturer's direction.
as §5

SMILES: COCCn1c2c([n+](Cc3cnccn3)c1C)C(=O)c1ccccc1C2=O [YM-155]
- cathodic peak current (ipc) (hESCs (H9)): markedly reduced
- ipc level upon co-culture of hiPSCs and hASMCs ([1]; 40 nM YM155, compared with equal number of untreated hASMCs): as low as that of hASMCs
- hiPSC colony morphology on the cell chip ([1]; 24 hour after treatment with 30 nM YM155, mixed culture of hiPSCs and hASMCs (FIG. 6C)): altered morphology of hiPSC colony
- ipc upon co-culture of hiPSCs and hASMCs ([1]; mixed culture, 24 hours after treatment, different doses (FIG. 6D)): gradually decreased in a dose-dependent manner
- specific Epc of hPSCs (undifferentiated hPSCs): completely disappeared
- cathodic peak current (ipc) (hiPSCs (SES8)): markedly reduced
- number of cells (hiPSCs (SES8)): markedly reduced
- apoptosis by active caspase-3 [2]: shown in only SSEA3-positive populations, not in SSEA3-negative populations
- apoptosis by active caspase-3 ([2]; listed as YM-55): shown in only the SSEA3+(positive) population, but not in SSEA3-(negative) population
